One data set can be described thus: water solubility. In kind it is physicochemical.
For another data set, the system named is Aspergillis. Particulars: aqueous suspensions; cited from earlier work.
A further data set concerns Candida. The following applies: aqueous suspensions; cited from earlier work.
Another data set relates to Cryptococcus. Particulars: aqueous suspensions; cited from earlier work.

Molecules are shown by their SMILES.

`CCC(C(C)O)n1ncn(-c2ccc(N3CCN(c4ccc(OCC5COC(Cn6cncn6)(c6ccc(F)cc6F)C5)cc4)CC3)cc2)c1=O` (single isomer, unassigned; (-)) [antifungal compound]: in the data set “water solubility”, the water solubility entry was “extremely low water solubility”. The “antifungal activity against Aspergillis” value with Aspergillis is on record as “potent antifungal activity”. In addition, the “antifungal activity against Candida” value in the data set with Candida was “potent antifungal activity”. The “antifungal activity against Cryptococcus” value in the data set with Cryptococcus was “potent antifungal activity”.

Source of the values: US5834472A (Schering Corporation, priority 1997, dated 1998).
